Assay results: US10709699B2, “Pyridone derivative pharmaceutical composition and preparation method thereof” (Jiangsu Hengrui Medicine Co., Ltd., priority 2016, dated 2020)

Legend:
Solubility = assay type: physicochemical; conditions: compound A and its salts
[1] = Particle size of the raw material by Malvern laser particle size analyzer (Mastersizer 2000); assay type: physicochemical; conditions: for Particle size d (0.5) of the raw material / Particle size d (0.9) of the raw material: in µm (unit assumed)
Description: 2-((2-Fluoro-4-iodophenyl)amino)-1-methyl-4-((6-methylpyridin-3-yl)oxy)-6-oxo-1,6-dihydropyridine-3-carboxamide p-toluenesulfonate (hereinafter referred to as compound A) was screened by an 80 mesh sieve, and micronized by a Mcone jet mill (micronizing pressure: 4 bar, sample introduction pressure: 6 bar), respectively. The particle size was measured directly with a Malvern laser particle size analyzer (Mastersizer 2000).

[2] = raw material micronized by a jet mill (4 bar)
[3] = raw material screened by an 80 mesh sieve

solubility (Solubility): low
particle size of the raw material ([1]; raw material micronized by a jet mill): less than 10 μm
Particle size d (0.5) of the raw material [1, 2]: 2.587
Particle size d (0.9) of the raw material [1, 2]: 5.494
Particle size d (0.5) of the raw material [1, 3]: 4.940
Particle size d (0.9) of the raw material [1, 3]: 14.148
SMILES: Cc1ccc(Oc2cc(=O)n(C)c(Nc3ccc(I)cc3F)c2C(N)=O)cn1.Cc1ccc(S(=O)(=O)O)cc1 [compound A, 2-((2-fluoro-4-iodophenyl)amino)-1-methyl-4-((6-methylpyridin-3-yl)oxy)-6-oxo-1,6-di hydropyridine-3-carboxamide p-toluenesulfonate]
